Assay results published in patent publication US20080118494A1, “Compositions For Detection Of Latent Hiv Reactivation And Methods Of Using The Same” (priority 2004, published 2008).

Tests used:
[1] = tested on: latent HIV-1 infection in human thymocytes derived from SCID-hu (Thy/liv) mice; test: Ex vivo reactivation of latent HIV-1 in thymocytes from infected SCID-hu (Thy/Liv) mice, EYFP flow cytometry; format: cell-based; settings: for EYFP+ cells: 24 h after depletion of EYFP+ cells, untreated 50; for induction of latent HIV-1 expression in thymocytes: range among tissue samples of four animals
Description: SCID-hu (Thy/liv) mice were infected with HIV-1 NLENY1-IRES, and thymocytes were isolated 2-4 weeks following infection. Cells were cultured for two days in the presence of AZT and indinavir to stop de novo infection and then subjected to fluorescence activated cell sorting to remove all EYFP^+ cells. Immediately following cell separation, the cells were seeded at a concentration of 1×10^6 cell/ml, cultured in supplemented RPMI 1640 to determine levels of spontaneous reactivation, stimulated with PMA, TNF-α, activating anti-CD28 antibody (clone 5D10) and the […] sodium butyrate (NaBu; two animals only). Levels of reactivation achieved in HIV-1 infected thymocytes derived from 4 different SCID-hu (Thy/liv) mice following ex vivo reactivation with the indicated stimulators are depicted as fold induction of […].
Isolation of thymocytes from SCID-hu (Thy/Liv) mice. Thy/Liv implants from the infected mice were harvested 2-4 weeks post infection and single cell suspensions generated by dissociation of the tissue. Thymocytes were isolated by Ficoll-Paque density gradient centrifugation and were cultured for two days in RPMI 1640 supplemented with 10% heat-inactivated FBS, 2 mM L-glutamine, 100 U/ml of penicillin, and 100 μg/ml of streptomycin, in the presence of indinavir and AZT, to inhibit de novo infection. Productively infected thymocytes, which expressed EYFP, were then removed from the cultures by FACS sorting. Purity of the resulting EYFP-negative cell population was determined by flow cytometric analysis for EYFP and was usually greater than 99.9%. Immediately following the sort, cells were stimulated. HIV-1 reactivation, as indicated by the de novo expression of EYFP was quantified by flow cytometry, acquiring at least 1×10^6 cells per sample in the live gate.
Reactivation of latent HIV-1 infection by anti-CD28 antibodies in human thymocytes derived from SCID-hu (Thy/liv) mice. Whether activating anti-CD28 antibody would also reactivate latent HIV-1 in a system where latency in primary cells was achieved under in vivo conditions was tested. For this purpose, a modification of the HIV-1 established SCID-hu (Thy/Liv) mouse system was used that has been previously used for the study of HIV-1 latency. Brooks et al., Nat. Med. 7:459-464 (2001). SCID-hu (Thy/Liv) mice were infected with HIV-1 NLENY1-IRES to allow for the easy and direct detection of infected cells using flow cytometry. Levy et al., Proc. Nat. Acad. Sci. 101:4204-4209 (2004). […] Levels of infection were determined by flow cytometry for EYFP, and varied in the different animals between 0.5 and 6% of the total thymocyte population. […] The cultures were then subjected to fluorescence activated cell sorting to remove all EYFP positive cells. […]

[2] = tested on: latent HIV-1 infection in bulk population of latently infected JLTRG cells; test: Reactivation of latent HIV-1 in a bulk population of latently infected cells, flow cytometry; format: cell-based; settings: optimal concentration of each compound, day 57 bulk population, 100,000 viable cells counted
Description: (A) Jurkat cells were infected with an EGFP expressing, replication incompetent reporter virus and the level of productive HIV-1 infection at each indicated time-point was directly assessed by flow cytometric analysis for EGFP expression (untreated; black circles). Levels of initial non-productive and later on latent HIV-1 infection was determined 24 hours following TNF-α stimulation (black squares). The results represent the mean ±S.D. of three independent experiments.
a) Quantification of the HIV-1 reactivating capabilities of test compounds. Following infection, HIV-1 integrates into the cellular genome. Integration is random, although HIV-1 preferentially integrates into euchromatin structures. Latency development can be thus influenced by a multitude of factors that alter gene expression or DNA structure, such as divergent gene expression patterns or the cell cycle stage at the time point of viral integration. Although the reporter cell lines are representative for the majority of latently infected cells and reliably identify most reactivating agents during the screening effort, they can not allow quantification of the capability of the individual compounds to reactivate HIV-1 infection from a diverse population of latently infected cells. To account for the influence that the side of integration of a latent virus can have on a compounds ability to reactivate the virus, a bulk population of latently infected cells (FIG. 7) was established. Following infection of JLTRG cells with HIV-1 NL43, a rapid increase of the level of infection can be observed. On day 3, an average 27% of the cells were productively infected. […] Until day 15, the percentage of productively infected cells rapidly declined to 3% of the overall cell population. At this time point, an additional 5% of the cells were non-productively infected. […] Since 1×10^6 cells were initially infected, and virus mediated inhibition of cell proliferation influences the relative level of infection over time can be excluded, it can be calculated that the latently infected cell population should consist of […] individual latently infected cells. This bulk population of cells allows quantification of the capability of the respective compounds to reactivate latent HIV-1. […] Each compound was titrated over a two-log concentration range to allow for optimal reactivation. The results for the optimal concentration of each compound are depicted in FIG. 7B. […] TNF-α (10 ng/ml) reactivated latent HIV-1 infection in 5% of the cells, whereas the DNA histone deacetylase inhibitors trichostatin A (TSA) and sodium butyrate (NaBu) reactivated latent HIV-1 infection in only 3% or 2.5% of the cells, respectively. To achieve an accurate estimate of the differences in the capability of different agents to reactivate HIV-1 infection it is important to run a sufficiently high number of cells. For this flow cytometry based analysis, 100,000 cells viable per sample were counted.

| Compound | EYFP+ cells [1] | induction of latent HIV-1 expression in thymocytes [1] | cells in which latent HIV-1 infection was reactivated [2] [%] |
| --- | --- | --- | --- |
| CCCCCCCCCCCCCC(=O)O[C@@H]1[C@@H](C)[C@@]2(O)[C@@H](C=C(CO)C[C@]3(O)C(=O)C(C)=C[C@@H]23)[C@@H]2C(C)(C)[C@]12OC(C)=O [PMA, 13-phorbol-12-myristate acetate] | 260 cells of 1×10^6 cells | 2.5-7 fold | 7 |
| TNF-α | 250 cells of 1×10^6 cells | 3-6 fold | 5 |
